Where two headings read alike, the source gives them in different places.
Assays:
[1] = molecular target: complex I (NADH:ubiquinone oxidoreductase) in bovine submitochondrial particles; details: internal bullatacin control, cited from earlier work
mouse complex I = molecular target: T1, mouse complex I (Mus musculus, UniProt P03888+Q91WD5+Q9DC70); assay: NADH:DQ assay of purified compound 1-copurified mouse complex I, initial rates against control sample; type: biochemical; details: first 25 s, 5 μM DQ, 0.5 μg ml−1 AOX, 200 μM NADH; after copurification with 200 μM compound 1 and size-exclusion chromatography; SD, n = 3 technical repeats; read-out: inhibition of initial rates (proportion of complex I molecules containing the inhibitor)
T1 construct: hearts were obtained from C57BL/6 mice; from tissue; host or cells: heart mitochondria of C57BL/6 mice
Protocol: To better understand the mode of acetogenin binding to complex I, the inhibitor-bound enzyme was prepared for cryo-EM analysis. The acetogenin ortholog inhibitor selected for study here is compound 1; it contains a γ-lactone group, a 12-carbon aliphatic chain (linker) that connects the γ-lactone to a central hydroxylated bis-tetrahydrofuran (THF) group, and a final 10-carbon aliphatic extension (tail) (Figs. 1 and 2). […] Furthermore, substrates (NADH and decylubiquinone, DQ) were added alongside to stimulate complex I turnover, along with an alcohol dehydrogenase and an alternative oxidase for substrate regeneration, to ensure exposure of the high-affinity binding site that may only be present in specific intermediates. Excess compound 1, substrates, and regenerating enzymes were then removed by size-exclusion chromatography to eliminate nonspecifically bound inhibitor molecules. […]
After ∼5 min at 4 °C incubation, 20 μl of the mixture was removed as a control, and the remaining sample was added to glass vials containing enough dried compound 1, from an ethanol stock, to give a final 200 μM of compound 1, resuspended with gentle pipetting. […] The specific activity of the control [measured in 0.15% asolectin (20 % soy PC), 0.15% CHAPS, and 200 μM DQ] was 9.6 ± 0.4 μmol min^−1 mg^−1.

[2] = ref 33, read-out: IC50* (complex I inhibition)
[3] = ref 34, read-out: IC50† (complex I inhibition)

Compound | IC50 [1, 2] [nM] | IC50 [1, 3] [nM] | IC50† (complex I inhibition) ([1]; ref 34) | inhibition at 200 µM (mouse complex I) [%]
CCCCCCCCCCC(O)C1CCC(C2CCC(C(CCCCCCCCCCCCC3=CC(C)OC3=O)OC(C)=O)O2)O1 (centres unmarked) [Compound 7] | 2.1 |  |  | 
CC(=O)OC(CCCCCCCCCCCCC1=CC(C)OC1=O)C1CCC(C2CCC(C(O)CCCCCCCCCCCCC3=CC(C)OC3=O)O2)O1 (centres unmarked) [Compound 12] |  | 2 ± 0.2 |  | 
CCCCCCCCCCC(O)C1CCC(C2CCC(C(O)CCCCCCCCCCCCC3=CCC(C)OC3=O)O2)O1 (centres unmarked) [Compound 3] | 1.3 ± 0.1 |  |  | 
bullatacin [reference compound] | 0.9 ± 0.2 | 1.2 ± 0.2 |  | 
CC1C=C(CCCCCCCCCCCCC(O)C2CCC(C3CCC(C(O)CCCCCCCCCCCCC4=CC(C)OC4=O)O3)O2)C(=O)O1 (centres unmarked) [Compound 11] |  | 1.2 ± 0.2 |  | 
CCCCCCCCCCC(OC(C)=O)C1CCC(C2CCC(C(CCCCCCCCCCCCC3=CC(C)OC3=O)OC(C)=O)O2)O1 (centres unmarked) [Compound 8] | 7.2 |  |  | 
CCCCCCCCCCC(O)C1CCC(C2CCC(C(O)CCCCCCCCCCCCC3=CCOC3=O)O2)O1 (centres unmarked) [Compound 2] | 1.2 ± 0.1 |  |  | 
CC(=O)OC(CCCCCCCCCCCCC1=CC(C)OC1=O)C1CCC(C2CCC(C(CCCCCCCCCCCCC3=CC(C)OC3=O)OC(C)=O)O2)O1 (centres unmarked) [Compound 13] |  | 18 ± 2 | maintains its high affinity | 
CC1C=C(CCCCCCCCCCCCC(O)C2CCC(C3CCC(C(O)CCCCCCCCCCCCC4=CC(C)OC4=O)O3)O2)C(=O)O1 (centres unmarked) [Compound 9] |  | 1.2 |  | 
CCCCCCCCCCC(O)C1CCC(C2CCC(C(O)CCCCCCCCCCCCC3=CC(C)OC3=O)O2)O1 (centres unmarked) [Compound 1] | 1.3 | 1.3 ± 0.1 |  | 77 ± 5
